# Test system: spinal cord transcriptome
# Test: RNA-Seq of spinal cord tissue from 2B/- and 2B/+ mice
# Type: in vivo, mouse
# [1] = 2B+ spinal cord RNA Seq polyA, WT-RG vs. WT-Veh, adjusted p-value 1.01E-05
# [2] = 2B+ spinal cord RNA Seq polyA, WT-RG vs. WT-Veh, adjusted p-value 3.86E-06
smiles,measurement,setting,value
Nc1nc(N)c2c(OCC3CCN(Cc4c(Cl)cccc4Cl)CC3)cccc2n1 [RG3039],log2(fold-change) 4632404H12Rik transcript,[1],1.233
same,log2(fold-change) Ifi44 transcript,[1],3.126
same,log2(fold-change) Snhg11 transcript,[1],0.9645
same,log2(fold-change) Scn10a transcript,[2],-4.931
same,log2(fold-change) Tmem233 transcript,[2],-5.091
same,log2(fold-change) 1700024P16Rik,2B-Veh vs 2B-RG3039,-0.9143
same,log2(fold-change) 2010001M06Rik,2B-Veh vs 2B-RG3039,-0.4589
same,log2(fold-change) 2810417H13Rik,2B-Veh vs 2B-RG3039,0.7557
same,log2(fold-change) 2810459M11Rik,2B-Veh vs 2B-RG3039,0.8489
same,log2(fold-change) 6330444E15Rik,2B-Veh vs 2B-RG3039,-1.493
same,log2(fold-change) 8430408G22Rik,2B-Veh vs 2B-RG3039,-1.92
same,log2(fold-change) A230028O05Rik,2B-Veh vs 2B-RG3039,-1.123
same,log2(fold-change) AI429214,2B-Veh vs 2B-RG3039,-0.7864
same,log2(fold-change) AW495222,2B-Veh vs 2B-RG3039,-0.8389
same,log2(fold-change) Abcc4,2B-Veh vs 2B-RG3039,-0.4948
same,log2(fold-change) Acacb,2B-Veh vs 2B-RG3039,-0.9081
same,log2(fold-change) Acer2,2B-Veh vs 2B-RG3039,-1.144
same,log2(fold-change) Ada,2B-Veh vs 2B-RG3039,-2.097
same,log2(fold-change) Adhfe1,2B-Veh vs 2B-RG3039,-0.3934
same,log2(fold-change) Adipor2,2B-Veh vs 2B-RG3039,-1.046
same,log2(fold-change) Adm,2B-Veh vs 2B-RG3039,-0.7407
same,log2(fold-change) Alox12,2B-Veh vs 2B-RG3039,1.236
same,log2(fold-change) Alpl,2B-Veh vs 2B-RG3039,0.9933
same,log2(fold-change) Angptl2,2B-Veh vs 2B-RG3039,0.7515
same,log2(fold-change) Angptl4,2B-Veh vs 2B-RG3039,-1.6266
same,log2(fold-change) Apln,2B-Veh vs 2B-RG3039,0.547
same,log2(fold-change) Aplnr,2B-Veh vs 2B-RG3039,1.065
same,log2(fold-change) Arrdc2,2B-Veh vs 2B-RG3039,-1.418
same,log2(fold-change) Arrdc3,2B-Veh vs 2B-RG3039,-0.727
same,log2(fold-change) Aspm,2B-Veh vs 2B-RG3039,0.9497
same,log2(fold-change) Aurkb,2B-Veh vs 2B-RG3039,0.7105
same,log2(fold-change) BC049352,2B-Veh vs 2B-RG3039,-1.185
same,log2(fold-change) BC064078,2B-Veh vs 2B-RG3039,-0.6877
same,log2(fold-change) Barx2,2B-Veh vs 2B-RG3039,0.4279
same,log2(fold-change) Bdh2,2B-Veh vs 2B-RG3039,-0.7221
same,log2(fold-change) Bst2,2B-Veh vs 2B-RG3039,1.093
same,log2(fold-change) Btbd16,2B-Veh vs 2B-RG3039,-0.8478
same,log2(fold-change) Bub1b,2B-Veh vs 2B-RG3039,0.7302
same,log2(fold-change) C130074G19Rik,2B-Veh vs 2B-RG3039,0.558
same,log2(fold-change) C330021F23Rik,2B-Veh vs 2B-RG3039,1.369
same,log2(fold-change) C430049B03Rik,2B-Veh vs 2B-RG3039,0.7515
same,log2(fold-change) Casc5,2B-Veh vs 2B-RG3039,0.9628
same,log2(fold-change) Ccdc150,2B-Veh vs 2B-RG3039,-0.9419
same,log2(fold-change) Ccna2,2B-Veh vs 2B-RG3039,0.5769
same,log2(fold-change) Ccnb1,2B-Veh vs 2B-RG3039,0.5224
same,log2(fold-change) Ccnb2,2B-Veh vs 2B-RG3039,0.5384
same,log2(fold-change) Cd101,2B-Veh vs 2B-RG3039,-0.9911
same,log2(fold-change) Cd248,2B-Veh vs 2B-RG3039,0.749
same,log2(fold-change) Cdk1,2B-Veh vs 2B-RG3039,0.4623
same,log2(fold-change) Cdkn1a,2B-Veh vs 2B-RG3039,-0.7839
same,log2(fold-change) Chaf1b,2B-Veh vs 2B-RG3039,0.7063
same,log2(fold-change) Chodl,2B-Veh vs 2B-RG3039,0.3892
same,log2(fold-change) Col8a1,2B-Veh vs 2B-RG3039,0.5045
same,log2(fold-change) Col12a1,2B-Veh vs 2B-RG3039,0.6621
same,log2(fold-change) Colq,2B-Veh vs 2B-RG3039,-0.452
same,log2(fold-change) Crispld1,2B-Veh vs 2B-RG3039,0.7708
same,log2(fold-change) Cth,2B-Veh vs 2B-RG3039,-0.9118
same,log2(fold-change) Cxcl12,2B-Veh vs 2B-RG3039,0.9102
same,log2(fold-change) D630039A03Rik,2B-Veh vs 2B-RG3039,-0.7287
same,log2(fold-change) Dao,2B-Veh vs 2B-RG3039,-0.6435
same,log2(fold-change) Dcxr,2B-Veh vs 2B-RG3039,-0.6455
same,log2(fold-change) Ddit4,2B-Veh vs 2B-RG3039,-0.977
same,log2(fold-change) Ddo,2B-Veh vs 2B-RG3039,-0.6951
same,log2(fold-change) Depdc1b,2B-Veh vs 2B-RG3039,0.6712
same,log2(fold-change) Dlgap5,2B-Veh vs 2B-RG3039,0.6868
same,log2(fold-change) Dnah8,2B-Veh vs 2B-RG3039,0.7242
same,log2(fold-change) Dtl,2B-Veh vs 2B-RG3039,0.8053
same,log2(fold-change) E230015J15Rik,2B-Veh vs 2B-RG3039,-1.036
same,log2(fold-change) Edn1,2B-Veh vs 2B-RG3039,-1.282
same,log2(fold-change) Ednrb,2B-Veh vs 2B-RG3039,0.7966
same,log2(fold-change) Egfl6,2B-Veh vs 2B-RG3039,0.8631
same,log2(fold-change) Elf5,2B-Veh vs 2B-RG3039,0.6236
same,log2(fold-change) Entpd2,2B-Veh vs 2B-RG3039,0.5977
same,log2(fold-change) Espl1,2B-Veh vs 2B-RG3039,0.7643
same,log2(fold-change) Etnppl,2B-Veh vs 2B-RG3039,-2.764
same,log2(fold-change) Ets1,2B-Veh vs 2B-RG3039,0.8775
same,log2(fold-change) Fabp7,2B-Veh vs 2B-RG3039,0.8454
same,log2(fold-change) Fam64a,2B-Veh vs 2B-RG3039,0.6855
same,log2(fold-change) Fam107a,2B-Veh vs 2B-RG3039,-1.657
same,log2(fold-change) Fam214a,2B-Veh vs 2B-RG3039,-0.4707
same,log2(fold-change) Fam83d,2B-Veh vs 2B-RG3039,-1.4639
same,log2(fold-change) Fas,2B-Veh vs 2B-RG3039,-0.8656
same,log2(fold-change) Fgf21,2B-Veh vs 2B-RG3039,-1
same,log2(fold-change) Fgfr4,2B-Veh vs 2B-RG3039,1.087
same,log2(fold-change) Fkbp5,2B-Veh vs 2B-RG3039,-1.583
same,log2(fold-change) Fli1,2B-Veh vs 2B-RG3039,0.4642
same,log2(fold-change) Fzd10,2B-Veh vs 2B-RG3039,1.186
same,log2(fold-change) Galnt15,2B-Veh vs 2B-RG3039,-1.568
same,log2(fold-change) Gatsl3,2B-Veh vs 2B-RG3039,-1.006
same,log2(fold-change) Gkn3,2B-Veh vs 2B-RG3039,1.302
same,log2(fold-change) Glul,2B-Veh vs 2B-RG3039,-0.8158
same,log2(fold-change) Gm266,2B-Veh vs 2B-RG3039,0.9562
same,log2(fold-change) Gm807,2B-Veh vs 2B-RG3039,-1.6695

# Source: PMC5612656, “In vitro and in vivo effects of 2,4 diaminoquinazoline inhibitors of the decapping scavenger enzyme DcpS: Context-specific modulation of SMN transcript levels” (PLoS ONE, 2017)
